Assay results: patent US20120214760A1, “TREATMENT OF URINARY TRACT INFECTIONS WITH ANTIBACTERIAL AMINOGLYCOSIDE COMPOUNDS” (Achaogen, Inc., priority 2009, published 2012)
≈ marks a conversion by molar mass, not a printed value. Where two headings read alike, the source gives them in different places.

Columns and labels:
Assay type in all cases: cell-based
[1] = tested on: E. coli ATCC 25922 (AECO001); test: MIC, CLSI broth microdilution; details: for MIC AECO001: Table 3; for MIC: Escherichia coli
Outline: (§1)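 CLSI M7-A7 broth microdilution in Mueller Hinton Broth using two-fold compound serial dilutions. Inoculum was prepared from the previous day's agar colonies at a final 5×10^5 CFU/mL. Plates were incubated at 35° C for 20 hours in ambient air.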

[2] = tested on: A. calcoaceticus AACA005, AAC(6′)-I; test: MIC, aminoglycoside resistant strain; details: Table 3
Experimental: (§2) Minimum inhibitory concentrations (MIC) were determined by reference Clinical and Laboratory Standards Institute (CLSI) broth microdilution methods per M7-A7 [2006]. Quality control ranges utilizing E. coli ATCC 25922, P. aeruginosa ATCC 27853 and S. aureus ATCC 29213, and interpretive criteria for comparator agents were as published in CLSI M100-S17 [2007]. Briefly, serial two-fold dilutions of the test compounds were prepared at 2× concentration in Mueller Hinton Broth. The compound dilutions were mixed in 96-well assay plates in a 1:1 ratio with bacterial inoculum. The inoculum was prepared by suspension of a colony from an agar plate that was prepared the previous day. Bacteria were suspended in sterile saline and added to each assay plate to obtain a final concentration of 5×10^5 CFU/mL. The plates were incubated at 35° C. for 20 hours in ambient air.
(§3) These MIC assays were conducted following the same protocol as set forth in Example 110. As shown, substituted sisomicin derivatives with groups other than methyl at the 6′-position have improved activity against strains expressing the AAC6′-modifying enzymes.

[3] = tested on: E. coli AECO040, AAC(6′)-I; test: MIC, aminoglycoside resistant strain; details: Table 3
Experimental: as §2, §3

[4] = tested on: S. marcescens ASMA003, ANT(2″) + AAC(6′); test: MIC, aminoglycoside resistant strain; details: Table 3
Experimental: as §2, §3

[5] = tested on: P. aeruginosa ATCC 27853 (APAE001); test: MIC, CLSI broth microdilution; details: Pseudomonas aeruginosa
Outline: as §1

[6] = ATCC27853, read-out: MIC APAE001, Table 1, APAE001 is ATCC27853
[7] = ATCC25922, read-out: MIC AECO001, Table 1, AECO001 is ATCC25922

Row | SMILES | MIC AECO001 ([1]; ATCC25922) [µg/mL] | MIC AACA005 [2] [µg/mL] | MIC AECO040 [3] [µg/mL] | MIC ASMA003 [4] [µg/mL] | MIC [5, 6] [µg/mL] | MIC [1, 7] [µg/mL] | MIC ([5]; ATCC27853, Table 2, read-out: MIC P. aeruginosa) [µg/mL] | MIC ([1]; ATCC25922, Table 2, read-out: MIC E. coli) [µg/mL] | MIC ([1]; Table 1, AECO001 is ATCC25922, read-out: MIC AECO001) [µg/mL]
1 | CN[C@@H]1[C@@H](O)[C@@H](O[C@@H]2C(O)[C@H](O[C@H]3OC(CNCCCN)=CC[C@H]3N)[C@@H](N)C[C@H]2N)OC[C@]1(C)O (some centres unmarked) [Mono-substituted Compound 4, reference compound] | 2 (≈ 3.96 µM) | 1 (≈ 1.98 µM) | 16 (≈ 31.7 µM) | 1 (≈ 1.98 µM) |  |  |  |  | 
2 | CNCC1=CC[C@@H](N)[C@@H](O[C@H]2C(O)[C@@H](O[C@H]3OC[C@](C)(O)[C@H](NC)[C@H]3O)[C@H](N)C[C@@H]2N)O1 (some centres unmarked) [Mono-substituted Compound 1, reference compound] | 1 (≈ 2.17 µM) | 2 (≈ 4.33 µM) | > 64 | 1 (≈ 2.17 µM) |  |  |  |  | 
3 | CN[C@@H]1C(O)[C@@H](O[C@@H]2[C@@H](O)[C@H](OC3OC(CN)=CC[C@H]3N)[C@@H](N)C[C@H]2NC(=O)[C@@H](O)CN)OC[C@]1(C)O (some centres unmarked) [Mono-substituted Compound 5, reference compound] | 0.5 (≈ 0.935 µM) | 32 (≈ 59.9 µM) | 8 (≈ 15 µM) | 2 (≈ 3.74 µM) |  |  |  |  | 
4 | CN[C@@H]1[C@@H](O)[C@@H](O[C@@H]2[C@@H](O)[C@H](O[C@H]3OC(CNCC4CC4)=CC[C@H]3N)[C@@H](N)C[C@H]2NC(=O)[C@@H](O)CCN)OC[C@]1(C)O [Example 18, 6′-(Methyl-cyclopropyl)-1-(4-amino-2(S)-hydroxy-butyryl)-sisomicin] | 1 (≈ 1.66 µM) | 2 (≈ 3.32 µM) | 0.25 (≈ 0.415 µM) | 4 (≈ 6.64 µM) | 1 to 16 (≈ 1.66 to 26.5 µM) | < 1 |  |  | 
5 | CN[C@@H]1[C@@H](O)[C@@H](O[C@@H]2[C@@H](O)[C@H](O[C@H]3OC(CNCCO)=CC[C@H]3N)[C@@H](N)C[C@H]2NC(=O)[C@@H](O)CN)OC[C@]1(C)O [Example 16, 6′-(2-Hydroxy-ethyl)-1-(3-amino-2(S)-hydroxy-propionyl)-sisomicin] | 1 (≈ 1.73 µM) | 2 (≈ 3.46 µM) | 1 (≈ 1.73 µM) | 2 (≈ 3.46 µM) |  |  | 1 to 16 (≈ 1.73 to 27.6 µM) | < 1 | < 1
6 | CNCC1=CC[C@@H](N)[C@@H](O[C@H]2[C@H](O)[C@@H](O[C@H]3OC[C@](C)(O)[C@H](NC)[C@H]3O)[C@H](NC(=O)C3(O)CNC3)C[C@@H]2N)O1 [Example 61] | 1 (≈ 1.78 µM) | 2 (≈ 3.57 µM) | 16 (≈ 28.5 µM) | 4 (≈ 7.13 µM) | 1 to 16 (≈ 1.78 to 28.5 µM) | < 1 |  |  | 
7 | CN[C@@H]1[C@@H](O)[C@@H](O[C@@H]2[C@@H](O)[C@H](O[C@H]3OC(CNCCCN)=CC[C@H]3N)[C@@H](N)C[C@H]2NC(=O)[C@@H](O)CCN)OC[C@]1(C)O [Example 48, 6′-(3-Amino-propyl)-1-(4-amino-2(S)-hydroxy-butyryl)-sisomicin] | 1 (≈ 1.65 µM) | 2 (≈ 3.3 µM) | 0.5 (≈ 0.825 µM) | 2 (≈ 3.3 µM) | 1 to 16 (≈ 1.65 to 26.4 µM) | < 1 |  |  | 
8 | CN[C@@H]1[C@@H](O)[C@@H](O[C@@H]2[C@@H](O)[C@H](O[C@H]3OC(CN)=CC[C@H]3N)[C@@H](N)C[C@H]2N)OC[C@]1(C)O [Sisomicin, reference compound] | 0.5 (≈ 1.12 µM) | 32 (≈ 71.5 µM) | 32 (≈ 71.5 µM) | 8 (≈ 17.9 µM) |  |  |  |  | 
9 | CN[C@@H]1C(O)[C@@H](O[C@@H]2[C@@H](O)[C@H](OC3OC(CN)=CC[C@H]3N)[C@@H](N)C[C@H]2NC(=O)C2(O)CNC2)OC[C@]1(C)O (some centres unmarked) [Mono-substituted Compound 7, reference compound] | 1 (≈ 1.83 µM) | 32 (≈ 58.5 µM) | 4 (≈ 7.32 µM) | 16 (≈ 29.3 µM) |  |  |  |  | 
10 | CN[C@@H]1[C@@H](O)[C@@H](O[C@@H]2[C@@H](O)[C@H](O[C@H]3OC(CNCC4CCNCC4)=CC[C@H]3N)[C@@H](N)C[C@H]2NC(=O)[C@@H](O)CCN)OC[C@]1(C)O [Example 12, 6′-(Methyl-piperidin-4-yl)-1-(4-amino-2(S)-hydroxy-butyryl)-sisomicin] | 1 (≈ 1.55 µM) | 2 (≈ 3.1 µM) | 0.5 (≈ 0.774 µM) | 4 (≈ 6.19 µM) | 1 to 16 (≈ 1.55 to 24.8 µM) | 1 to 16 (≈ 1.55 to 24.8 µM) |  |  | 
11 | CN[C@@H]1C(O)[C@@H](O[C@@H]2[C@@H](O)[C@H](OC3OC(CN)=CC[C@H]3N)[C@@H](N)C[C@H]2NC(=O)[C@@H](O)CCN)OC[C@]1(C)O (some centres unmarked) [Mono-substituted Compound 6, reference compound] | 0.5 (≈ 0.911 µM) | 16 (≈ 29.2 µM) | 4 (≈ 7.29 µM) | 4 (≈ 7.29 µM) |  |  |  |  | 
12 | CN[C@@H]1[C@@H](O)[C@@H](O[C@@H]2C(O)[C@H](O[C@H]3OC(CNCC4CC4)=CC[C@H]3N)[C@@H](N)C[C@H]2N)OC[C@]1(C)O (some centres unmarked) [Mono-substituted Compound 2, reference compound] | 1 (≈ 1.99 µM) | 4 (≈ 7.97 µM) | 1 (≈ 1.99 µM) | 0.5 (≈ 0.997 µM) |  |  |  |  | 
13 | CN[C@@H]1[C@@H](O)[C@@H](O[C@@H]2C(O)[C@H](O[C@H]3OC(CNCC4CCNCC4)=CC[C@H]3N)[C@@H](N)C[C@H]2N)OC[C@]1(C)O (some centres unmarked) [Mono-substituted Compound 3, reference compound] | 0.5 (≈ 0.918 µM) | 0.5 (≈ 0.918 µM) | 0.25 (≈ 0.459 µM) | 1 (≈ 1.84 µM) |  |  |  |  | 
14 | CN[C@@H]1[C@@H](O)[C@@H](O[C@@H]2[C@@H](O)[C@H](O[C@H]3OC(CNCCCCN)=CC[C@H]3N)[C@@H](N)C[C@H]2NC(=O)[C@@H](O)CCN)OC[C@]1(C)O [Example 43, 6′-(4-Amino-butyl)-1-(4-amino-2(S)-hydroxy-butyryl)-sisomicin] |  |  |  |  | < 1 | < 1 |  |  | 
15 | CN[C@@H]1[C@@H](O)[C@@H](O[C@@H]2[C@@H](O)[C@H](O[C@H]3OC(CNCC(O)CCN)=CC[C@H]3N)[C@@H](N)C[C@H]2NC(=O)C(O)C2CNC2)OC[C@]1(C)O (some centres unmarked) [Example 77, 6′-(2-Hydroxy-4-amino-butyl)-1-(2-(azetidin-3-yl)-2-hydroxy-acetyl)-sisomicin] |  |  |  |  | 1 to 16 (≈ 1.54 to 24.7 µM) | 1 to 16 (≈ 1.54 to 24.7 µM) |  |  | 
16 | CN[C@@H]1[C@@H](O)[C@@H](O[C@@H]2[C@@H](O)[C@H](O[C@H]3OC(CNCC4(O)CC(N)C4)=CC[C@H]3N)[C@@H](N)C[C@H]2NC(=O)C(O)C2CNC2)OC[C@]1(C)O (some centres unmarked) [Example 83, 6′-(Methyl-3-amino-1-hydroxy-cyclobutyl)-1-(2-(azetidin-3-yl)-2-hydroxy-acetyl)-sisomicin] |  |  |  |  | > 16 | 1 to 16 (≈ 1.52 to 24.3 µM) |  |  | 
17 | CN[C@@H]1[C@@H](O)[C@@H](O[C@@H]2[C@@H](O)[C@H](O[C@H]3OC(CNCCNC4CNC4)=CC[C@H]3N)[C@@H](N)C[C@H]2NC(=O)[C@@H](O)CN)OC[C@]1(C)O [Example 81, 6′-(N-(Azetidin-3-yl)-2-amino-ethyl)-1-(3-amino-2(S)-hydroxy-propionyl)-sisomicin] |  |  |  |  | > 16 | 1 to 16 (≈ 1.58 to 25.3 µM) |  |  | 
18 | CN[C@@H]1[C@@H](O)[C@@H](O[C@@H]2[C@@H](O)[C@H](O[C@H]3OC(CNCC4CC(N)C4)=CC[C@H]3N)[C@@H](N)C[C@H]2NC(=O)[C@@H](O)CCN)OC[C@]1(C)O (stereo partly drawn) [Example 33, 6′-(Methyl-trans-3-amino-cyclobutyl)-1-(4-amino-2(S)-hydroxy-butyryl)-sisomicin] |  |  |  |  | 1 to 16 (≈ 1.58 to 25.3 µM) | < 1 |  |  | 
19 | CN[C@@H]1[C@@H](O)[C@@H](O[C@@H]2[C@@H](O)[C@H](O[C@H]3OC(CNC[C@H]4C[C@H](N)C4)=CC[C@H]3N)[C@@H](N)C[C@H]2NC(=O)C(O)C2CNC2)OC[C@]1(C)O (stereo partly drawn) [Example 72, 6′-(Methyl-trans-3-amino-cyclobutyl)-1-(2-(azetidin-3-yl)-2-hydroxy-acetyl)-sisomicin] |  |  |  |  | 1 to 16 (≈ 1.55 to 24.9 µM) | 1 to 16 (≈ 1.55 to 24.9 µM) |  |  | 
20 | CN[C@@H]1[C@@H](O)[C@@H](O[C@@H]2[C@@H](O)[C@H](O[C@H]3OC(CNCC(C)(C)N)=CC[C@H]3N)[C@@H](N)C[C@H]2NC(=O)[C@@H](O)CN)OC[C@]1(C)O [Example 55, 6′-(2-Methyl-2-amino-propyl)-1-(3-amino-2(S)-hydroxy-propionyl)-sisomicin] |  |  |  |  | > 16 | 1 to 16 (≈ 1.65 to 26.4 µM) |  |  | 
